According to patent US20250134876A1, “METHODS OF TREATING A CANCER OVEREXPRESSING ONE OR MORE BCL-2 FAMILY PROTEINS” (Kartos Therapeutics, Inc., priority 2021, published 2025):

What was measured:
[1] = test system: HEL-92 cells (TP53 mutant); test: Bcl-2 family protein expression in HEL-92 cells, intracellular flow cytometry; format: cell-based; details: 72 hours
Description: (§1) The effect of the compound of Formula (I) on inducing apoptosis along with the expression of anti-apoptotic and pro-apoptotic protein expression in the MV-411 AML cell was assessed. […] Molecular Cancer Therapeutics. 2015 Mar. 1; 14(3):649-58. After 72 hours of culture with the compound of Formula (I), MV-411 (TP53 wt) and HEL-92 cells (TP53 mutant) were stained with antibodies against various Bcl-2 family proteins and data acquired using intracellular flow cytometry (FIG. 5(B)).

[2] = test system: CLL tumor cells; test: p53 and Bcl-2 family protein expression and apoptosis (cPARP+) in patient CLL tumor cells treated ex vivo, intracellular flow cytometry; format: cell-based, human; details: CLL tumor cells on HS-5 stromal cells, 24 hours
Description: The effect of the compound of Formula (I) on the expression of p53 along with anti-apoptotic and pro-apoptotic proteins was assessed in tumors cells isolated from patients diagnosed with CLL. Blood samples were collected prior to the patient receiving any treatment. CLL tumor cells were isolated and incubated on HS-5 stromal cells for 24 hours and then treated with the compound of Formula (I) for 24 hours. p53 and Bcl-2 family proteins were measured by intracellular flow cytometry and shown as median fluorescent intensity (MFI). The percent cPARP+ is shown above the level of basal spontaneous apoptosis. CLL tumor cells were cultured on HS-5 stromal cells were then treated with an increasing concentrations of the compound of Formula (I) for 24 hours. The result was an increase in intracellular P53 levels along with a decrease in anti-apoptotic Bcl-XL and Mcl-1 levels, and an increase in pro-apoptotic Bax.

[3] = test system: MV-411 AML cell line (TP53 wild-type); test: Bcl-2 family protein expression in MV-411 AML cells, intracellular flow cytometry; format: cell-based; details: MV-411 cells, 72 hours, above the concentration to induce cell stasis
Description: as §1

[4] = test system: patients with R/R AML; test: Gene expression in PBMC from treated patients with R/R AML; format: in vivo, human
Description: For patients with R/R AML, the compound of Formula (I) was administered at 120 mg (n=3), 180 mg (n=2), 240 mg (n=8), or 360 mg (n=4) daily for QD for seven days in dose-escalation phase, with different ‘off-treatment’ duration depending on cohort assignments. Samples taken at pre-dose on Cycle 1, Day 1 (C1D1) and Cycle 1, Day 5 (C1D5).
Treatment of patients with R/R AML with the compound of Formula (I) induces expression of genes involved in the Bcl-2 apoptotic pathway. […] FIG. 8 illustrates induced expression of Bcl-2 genes in PBMC following treatment of R/R AML patients with the compound of Formula (I). Eighteen genes were included in analysis: BAD, BAX, BCL2L1, MCL1, BCL2, BID, CAPN2, CASP10, CASP3, CASP7, CASP8, CASP9, TNFRSF10A, TNFRSF10B, TP53, PUMA, NOXA and STAT3. Experimental data was obtained similar to the method set forth in Example 4.

[5] = test system: UKE-1 myelofibrosis cell line (TP53 wild-type); test: Pro-apoptotic protein expression in UKE-1 myelofibrosis cell line, intracellular flow cytometry; format: cell-based; details: UKE-1 cells, 2.5 pM, 24, 48 and 72 hours, time-dependent
Description: The compound of Formula (I) induces Bak, Bax and BIM expression in a myelofibrosis cell line. The UKE-1 myelofibrosis cell line (TP53 wild-type) was cultured for 24, 48 and 72 hours with 2.5 pM of compound (equivalent to levels observed in vivo following administration in patients) and stained with antibodies against various pro-apoptotic protein using intracellular flow cytometry techniques. […] The upper line is cells treated with the compound of Formula (I) while the lower line is a control (no treatment).

[6] = test system: patients with R/R myelofibrosis; test: mRNA expression in cells isolated from treated patients with R/R myelofibrosis; format: in vivo, human; details: 120 mg or 240 mg for 5 or 7 days, C1D1 pre-dose vs C1D5
Description: Treatment of patients with the compound of Formula (I) induces p21, Bax and Puma expression in vivo in patients with R/R myelofibrosis or R/R AML. mRNA expression in cells isolated from patients was evaluated pre-dosing on day 1 and 24 hours after the first course of treatment with the compound of Formula (I) in patients with R/R myelofibrosis (FIG. 7(A)). The compound of Formula (I) is administered at 120 mg for 7 days for Cohort 1, 240 mg for 7 days for Cohort 2, 240 mg for 7 days for Cohort 3, and 240 mg for 5 days for Cohort 4. Samples taken at pre-dose on Cycle 1, Day 1 (C1D1) and Cycle 1, Day 5 (C1D5).

[7] = 120-360 mg QD for seven days, C1D1 pre-dose vs C1D5

CC(C)[C@@H](CS(=O)(=O)C(C)C)N1C(=O)[C@@](C)(CC(=O)O)C[C@H](c2cccc(Cl)c2)[C@H]1c1ccc(Cl)cc1 [Formula (I), 2-((3R,5R,6S)-5-(3-chlorophenyl)-6-(4-chlorophenyl)-1-((S)-1-(isopropylsulfonyl)-3-methylbutan-2-yl)-3-methyl-2-oxopiperidin-3-yl) acetic acid]
changes in Bcl-2 family proteins [1]: no changes | expression of anti-apoptotic protein Bcl-2 [2]: decreased expression | expression of pro-apoptotic protein Bak [2]: increased expression | cell apoptosis (percent cPARP+ above basal spontaneous apoptosis) ([2]; increasing concentrations): increased cell apoptosis in a dose-dependent manner | anti-apoptotic Bcl-XL levels ([2]; increasing concentrations, MFI): decrease | anti-apoptotic Mcl-1 levels ([2]; increasing concentrations, MFI): decrease | intracellular P53 levels ([2]; increasing concentrations, MFI): increase | pro-apoptotic Bax levels ([2]; increasing concentrations, MFI): increase | anti-apoptotic Bcl-2 family proteins [3]: decrease | pro-apoptotic effector protein Bak [3]: increase | pro-apoptotic effector protein Bax [3]: increase | expression of Bax (gene expression) [4, 7]: increased expression | expression of Puma (gene expression) [4, 7]: increased expression | expression of p21 (gene expression) [4, 7]: increased expression | expression of genes involved in the BCL2 family/apoptosis pathway ([4]; cells isolated from peripheral blood (PBMC), eighteen genes): induced the expression | protein expression of BIM [5]: induced protein expression | protein expression of Bak [5]: induced protein expression | protein expression of Bax [5]: induced protein expression | expression of Bax (mRNA) [6]: increased expression | expression of p21 (mRNA) [6]: increased expression
